According to patent US10351566B2, “Therapeutic compounds for pain and synthesis thereof” (priority 2015, dated 2019):
Several values for one entry are separate records, joined by “and”; a condition that tells them apart may be missing. Equal entries are not always repeated. Entries after “also recorded” stand apart in the source; their conditions may differ. Where two headings read alike, the source gives them in different places.

How the values were obtained:
[1] = system: Taxol-induced neuropathic pain; experiment: Taxol-induced neuropathic pain in mice, oral route; type: in vivo
Method: Study outline in brief: Animals were dosed daily with Taxol for a period of 8 consecutive days (Day 0 to Day 7). On study day 8, prior to drug dosing, the decrease in withdrawal force (tactile allodynia) was verified by applying the von Frey test. After assigning the animals to their treatment groups, the animals were treated daily for a period of 5 days with either vehicle or Formula 1 at different doses. Gabapentin at a dose of 150 mg/kg was dosed only on days of testing (day 8 and day 14).
The activity of Formula 1 following oral administration was assessed using the Taxol model (see Study Outline in section 7.1). […] Gabapentin dosed at 150 mg/kg was active for a period of 4 h post-dosing.

[2] = type: in vivo; settings: naïve mice, 10 mg/kg IP
Method: Changes in responses of normal withdrawal threshold to heat and cold stimuli in naïve animals following drug treatment may reflect a CNS effect, as in the case of cannabinoids or opioids. Therefore, the response of the naïve mice post-Formula 1 administration at a dose of 10 mg/kg IP was assessed (Table 5).

[3] = Tolerability / repeated dosing safety in mice; type: in vivo; settings: for Findings: Mice
Method: The tolerability of Formula 1 was evaluated in mice and rats.

in vivo = settings: mice; for half-life: read-out: terminal half-life (converted)
Method: Pharmacokinetic studies of MD-354 were performed in mice following 50 mg/kg oral and 5 mg/kg intravenous administration (FIG. 17).
The plasma concentration decreased in a multi-phasic manner to 0.76 ng/mL at 8 hours post-dose.

[4] = type: in vivo; settings: mice, 10 mg/kg IP
Method: Mice received a 10 mg/kg IP dose of Formula 1. The animals were placed in the open field apparatus after 30 minutes (box of 0.5×0.5×0.5 m length, width and height) for a period of 5 min. The animals' walking distance and speed were evaluated and compared to the vehicle-treated group.

in vitro [5] = type: in vitro ADME; settings: 1 μM; for microsomal CLint: read-out: intrinsic clearance (CLint)
Method: Metabolic stability studies in mouse, rat and human liver microsomes were performed at a compound concentration of 1 μM.

[6] = system: CCI-induced neuropathic pain; experiment: CCI model in mice, IP route; type: in vivo; settings: CCl model
From the text: IP route of administration was used for initial proof of principle studies with Formula 1. However, the chosen route of administration in most of the studies conducted with Formula 1 was either SC or PO. A brief protocol outline is provided in each section, for the purpose of understanding the results without elaborating on all the detailed procedures.
Table 7 summarizes the activity of Formula 1 in mice models of neuropathic pain following repeated daily administration using different routes of administration. […] Treatment with Formula 1 show activity without CNS effect.

[7] = system: selected targets (including some important cardiovascular safety-related targets); settings: at 10 μM
Method: A Cerep activity screen was conducted and was negative against the selected targets at 10 μM (including some important cardiovascular safety-related targets) for Formula 1.

[8] = system: CCI-induced neuropathic pain; experiment: Chronic constriction injury (CCI) model in mice, SC route; type: in vivo; settings: for Dose of maximum activity / Duration of activity at maximum effect / Level of activity (% of maximum effect-baseline) / Peak of activity (T): CCl model, mice
Method: Study outline in brief: The sciatic nerve of mice was exposed under anesthesia, and 3 loose ligations were placed around the nerve. Animals were allowed to recover for 3 days. Tactile allodynia (von Frey testing) and thermal (hot at 50±1° C. and cold at 2±1° C.) hyperalgesia were then assessed. Animals that experienced tactile allodynia were assigned to their treatment groups (vehicle, gabapentin and Formula 1 at different doses). Animals were subsequently treated daily for a period of 5 days with either vehicle or Formula 1 at different doses. Gabapentin at a dose of 150 mg/kg was dosed only on days of testing (day 3 and day 7).

[9] = system: Taxol-induced neuropathic pain; experiment: Taxol-induced neuropathic pain in mice, oral route; type: in vivo; settings: oral 50 mg/kg, study day 14, repeated daily dosing day 8 to day 14
in vitro [10] = type: in vitro ADME; settings: human, Caco-2
Method: Formula 1 was evaluated for cellular permeability using Caco-2 cell monolayers. Both the apical-to-basolateral (A-B) and basolateral-to-apical (B-A) bidirectional permeability and efflux ratios were evaluated in the assay.

[11] = oral, two additional sets of data, listed as 354
[12] = 30 minutes after dosing, 5 min in open field

**Q.** For CC(C)(C)C(=O)O[C@@H]1[C@@H]2[C@H]3C[C@H](C[C@@H]1N3Cc1ccccn1)CN2C(=O)CC(F)(F)F (relative stereo) [Formula 1, (2S*,3S*,3aS*,6R*,7aR*)-1-(pyridin-2-ylmethyl)-4-(3,3,3-trifluoropropanoyl)octahydro-1H-2,6-methanopyrrolo[3,2-b]pyridin-3-yl pivalate], which withdrawal force ([1]; Taxol mice, oral 50 mg/kg, 2 h post-single administration, study day 8) is on record?
**A.** active in fully reversing the withdrawal force

**Q.** And the withdrawal force ([1]; Taxol mice, oral 50 mg/kg, 24 h post-dosing (study day 14 pre-dosing))?
**A.** significantly active

**Q.** And the tolerance effect ([1]; Taxol mice, oral 50 mg/kg, repeated daily dosing)?
**A.** No tolerance effect was noted

**Q.** What about the “heat hyperalgesia (hotplate test)” value ([1]; Taxol mice, oral 50 mg/kg, 50 mg/kg) of the same molecule?
**A.** No activity was found; also recorded: not statistically different from the vehicle-treated group

**Q.** And the “Dose of maximum activity” value ([1]; Taxol model, PO, mice)?
**A.** <50 mg/kg

**Q.** And the “Duration of activity at maximum effect” value ([1]; Taxol model, PO, mice)?
**A.** 24 H

**Q.** And the “Level of activity (% of maximum effect-baseline)” value ([1]; Taxol model, PO, mice)?
**A.** 100%

**Q.** What about the “Peak of activity (T)” value ([1]; Taxol model, PO, mice) of the same molecule?
**A.** 2-6 H

**Q.** And the “Response to cold stimuli (2 ± 1° C. )” value [2]?
**A.** 20.6 ± 11.39 s

**Q.** What about the “Response to heat stimuli (50 ± 1° C. )” value [2] of the same molecule?
**A.** 12.87 ± 2.59 s

**Q.** What about the “basal response to cold or heat stimuli” value [2] of the same molecule?
**A.** not effective in altering the basal response

**Q.** What about the Findings ([3]; IP, 10 mg/kg, 31 days) of the same molecule?
**A.** NPF

**Q.** And the Findings ([3]; IP, 30 mg/kg, 5 days)?
**A.** NPF

**Q.** And the Findings ([3]; PO, 50 mg/kg, 5 days)?
**A.** NPF

**Q.** What about the Findings ([3]; SC, 60 mg/kg, 5 days) of the same molecule?
**A.** NPF

**Q.** What about the tolerability ([3]; mice, 5 days intraperitoneal dosing at 30 mg/kg) of the same molecule?
**A.** well tolerated

**Q.** And the tolerability ([3]; mice, 5 days oral dosing at 50 mg/kg)?
**A.** well tolerated

**Q.** And the tolerability ([3]; mice, 5 days subcutaneous dosing at 60 mg/kg)?
**A.** well tolerated

**Q.** And the tolerability ([3]; mouse, single dose of 100 mg/kg)?
**A.** tolerated

**Q.** And the “plasma concentration at 8 hours post-dose” value (in vivo; intravenous 5 mg/kg)?
**A.** 6.74 ng/mL

**Q.** What about the “plasma concentration at 8 hours post-dose” value (in vivo; oral 50 mg/kg) of the same molecule?
**A.** 0.76 ng/mL

**Q.** And the “time to peak plasma concentration” value (in vivo; oral 50 mg/kg)?
**A.** ≤ 5 min

**Q.** What about the “time to peak plasma concentration” value (in vivo; oral, two additional sets of data) of the same molecule?
**A.** ≤ 5 min

**Q.** What about the oral bioavailability (in vivo; [11]) of the same molecule?
**A.** 14.7%

**Q.** What about the peak plasma concentration (in vivo; [11]) of the same molecule?
**A.** 3157 ng/mL and 3001 ng/mL

**Q.** And the “plasma concentration at 8 hours post-administration” value (in vivo; [11])?
**A.** 8.4 ng/mL and 11.4 ng/mL

**Q.** And the terminal half-life (in vivo; [11])?
**A.** 75 min

**Q.** What about the half-life (in vivo; mouse, in vivo, iv, 5 mg/kg, intravenous 5 mg/kg, excluding the 8 h time point) of the same molecule?
**A.** 21 min

**Q.** And the bioavailability (in vivo; mouse, in vivo, oral 50 mg/kg vs intravenous 5 mg/kg, read-out: absolute oral bioavailability)?
**A.** 10.5%

**Q.** What about the half-life (in vivo; mouse, in vivo, po, 50 mg/kg, oral 50 mg/kg) of the same molecule?
**A.** 51 min

**Q.** And the bioavailability (in vivo; mouse, in vivo, po, oral, two additional sets of data, read-out: oral bioavailability)?
**A.** 14.1%

**Q.** And the half-life (in vivo; mouse, in vivo, po, oral, two additional sets of data)?
**A.** 71.4 min

**Q.** What about the C0 (in vivo; mouse, in vivo, intravenous 5 mg/kg, read-out: initial plasma concentration (C0)) of the same molecule?
**A.** 7940 ng/mL

**Q.** And the Vd (in vivo; mouse, in vivo, intravenous 5 mg/kg, read-out: steady-state volume of distribution (Vss))?
**A.** 1.08 L/kg

**Q.** What about the clearance (in vivo; mouse, in vivo, intravenous 5 mg/kg, read-out: systemic plasma clearance (CLp)) of the same molecule?
**A.** 46.1 mL/min/kg

**Q.** What about the Cmax (in vivo; mouse, in vivo, oral 50 mg/kg, read-out: peak plasma concentration (Cmax)) of the same molecule?
**A.** 1930 ng/mL

**Q.** And the “walking distance and speed vs. vehicle-treated group” value [4]?
**A.** No difference was found

**Q.** And the Distance [4, 12]?
**A.** 1.94 ± 0.89 m

**Q.** And the “Time spent in the center of the field” value [4, 12]?
**A.** 34.82 ± 23.53 s

**Q.** What about the half-life (in vitro [5]; human liver microsomes) of the same molecule?
**A.** 8 min

**Q.** What about the microsomal CLint (in vitro [5]; human liver microsomes) of the same molecule?
**A.** 174 µL/min/mg

**Q.** And the half-life (in vitro [5]; mouse liver microsomes)?
**A.** < 4 min

**Q.** And the microsomal CLint (in vitro [5]; mouse liver microsomes)?
**A.** > 346 µL/min/mg

**Q.** What about the half-life (in vitro [5]; rat liver microsomes) of the same molecule?
**A.** < 4 min

**Q.** What about the microsomal CLint (in vitro [5]; rat liver microsomes) of the same molecule?
**A.** > 346 µL/min/mg

**Q.** What about the “Dose of maximum activity” value [6] of the same molecule?
**A.** 30 mg/kg

**Q.** What about the “Duration of activity at maximum effect” value [6] of the same molecule?
**A.** >4 H

**Q.** What about the “Peak of activity (T)” value [6] of the same molecule?
**A.** 2 H

**Q.** What about the “Level of activity (% of maximum effect-baseline)” value ([6]; repeated daily administration) of the same molecule?
**A.** 33%

**Q.** What about the “Cerep activity screen result” value [7] of the same molecule?
**A.** negative

**Q.** What about the “effect on response time in the hotplate test” value ([8]; CCI mice, SC) of the same molecule?
**A.** not significant

**Q.** And the “response time to cold stimuli” value ([8]; CCI mice, SC 30 mg/kg and 60 mg/kg)?
**A.** increased response time to cold stimuli

**Q.** And the “withdrawal force (von Frey)” value ([8]; CCI mice, SC 60 mg/kg, daily repeated treatment)?
**A.** significant increase in the withdrawal force

**Q.** What about the “time of peak activity on cold response” value ([8]; CCI mice, SC, following a single dose) of the same molecule?
**A.** 2 h

**Q.** What about the “time of peak activity on cold response” value ([8]; CCI mice, SC, post-dosing following repeated daily dosing) of the same molecule?
**A.** 2 h

**Q.** What about the tolerance effect ([8]; CCI mice, SC, repeated dosing) of the same molecule?
**A.** No tolerance effect was observed

**Q.** And the “Dose of maximum activity” value ([8]; SC, first SC line)?
**A.** 60 mg/kg

**Q.** And the “Duration of activity at maximum effect” value ([8]; SC, first SC line)?
**A.** >4 H

**Q.** What about the “Level of activity (% of maximum effect-baseline)” value ([8]; SC, first SC line) of the same molecule?
**A.** 43%

**Q.** What about the “Peak of activity (T)” value ([8]; SC, first SC line) of the same molecule?
**A.** 2 H

**Q.** And the “Level of activity (% of maximum effect-baseline)” value ([8]; SC, second SC line (readout not given))?
**A.** 100%

**Q.** And the “Dose of maximum activity” value ([8]; SC, second SC line)?
**A.** 30 mg/kg

**Q.** And the “Duration of activity at maximum effect” value ([8]; SC, second SC line)?
**A.** >4 H

**Q.** And the “Peak of activity (T)” value ([8]; SC, second SC line)?
**A.** 2 H

**Q.** What about the withdrawal force [9] of the same molecule?
**A.** This activity was maintained

**Q.** And the efflux ratio (in vitro [10])?
**A.** 10.4

**Q.** What about the Papp A→B (in vitro [10]; apical-to-basolateral) of the same molecule?
**A.** 6.6 ×10⁻⁶ cm/s

**Q.** And the Papp B→A (in vitro [10]; basolateral-to-apical)?
**A.** 68.3 ×10⁻⁶ cm/s
